Data on twelve compounds can be found in ChEMBL document CHEMBL1201862, “PubChem BioAssay data set” (2004).

Among the test systems are HOP-92; OVCAR-4; SF-539; SW-620; HCC 2998; OVCAR-5; SK-MEL-28; HT-29; OVCAR-8; M14; MOLT-4; CAKI-1; SR; HL-60; EKVX; OVCAR-3; UACC-257.
Holding throughout (assay): NCI-60 cell line screen, 48 h

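1) Cells in 96-well plates. 2) Compound, 48 h, 5 concentrations. 3) Linear interpolation between surrounding doses. 4) Unreached endpoint = highest concentration. Here, GI50 denotes the concentration required for 50% inhibition of growth.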 Active and inactive are the calls of the source. Rule as the data show it: active = GI50 up to about 1.1 µM and inactive = higher.

Consider `CC(C)C1=Cc2ccc3c(c2C(=O)C1=O)CCCC3(C)C` [MILTIRONE], for which the GI50 was 4.18 µM (inactive) with HOP-92; 1.77 µM (inactive) in the assay on OVCAR-4; 5.33 µM (inactive) in the assay on SF-539; 3.15 µM (inactive) with SW-620; 18.4 µM (inactive) in the assay on HCC 2998; 19.4 µM (inactive) in the assay with OVCAR-5. For the same compound, the GI50 in the assay on SK-MEL-28 was 5.62 µM (inactive); with HT-29 it was 20.1 µM (inactive); in the assay with OVCAR-8, 4.29 µM (inactive); with M14 it was 5.46 µM (inactive); with MOLT-4, 2.19 µM (inactive); in the assay on CAKI-1 it was 2.47 µM (inactive). Besides, the GI50 in the assay with SR is 2.36 µM (inactive); with HL-60, 2.37 µM (inactive); in the assay on EKVX it was 14.5 µM (inactive); in the assay on OVCAR-3 it was 2.58 µM (inactive); in the assay on UACC-257, 3.08 µM (inactive).

`CC1=C(C(=O)Nc2ccccc2C)C(c2ccc(Cl)cc2)C(C(=O)Nc2ccccc2C)=C(C)N1`: the GI50 in the assay with HOP-92, with OVCAR-4, with SF-539, with SW-620, in the assay with HCC 2998 and with OVCAR-5 was > 100 µM (inactive) in each case. Moreover, the GI50 with SK-MEL-28, with HT-29, in the assay on OVCAR-8, in the assay with M14, in the assay on MOLT-4 and with CAKI-1 was > 100 µM (inactive) in each case. For the same compound, the GI50 in the assay on SR, in the assay with HL-60, in the assay on EKVX, with OVCAR-3 and in the assay on UACC-257 was > 100 µM (inactive) each time.

On to `Cc1ccc(NC(=O)C(=O)C2C(=O)N(c3ccccc3)N=C2N)cc1C` (stereo not given), for which the GI50 with HOP-92, in the assay with OVCAR-4, in the assay on SF-539, with SW-620, in the assay with HCC 2998 and in the assay with OVCAR-5 was > 100 µM (inactive) in each case. Further, the GI50 with SK-MEL-28, with HT-29, in the assay on OVCAR-8, with M14, with MOLT-4 and in the assay with CAKI-1 was > 100 µM (inactive) throughout. Further, the GI50 in the assay on SR, in the assay with HL-60, in the assay with EKVX, in the assay on OVCAR-3 and in the assay with UACC-257 was > 100 µM (inactive) each time.

In the case of `CN(C)CCN(C)C(=O)C1CCCN1C(=O)OCc1ccccc1` (stereo not given), the GI50 in the assay on HOP-92, with OVCAR-4, in the assay with SF-539, in the assay with SW-620, in the assay on HCC 2998 and with OVCAR-5 was > 100 µM (inactive) throughout. The GI50 in the assay on SK-MEL-28 was > 100 µM (inactive); with HT-29 it was > 100 µM (inactive); in the assay with OVCAR-8, > 100 µM (inactive); in the assay on M14, > 100 µM (inactive); with MOLT-4, > 100 µM (inactive); in the assay with SR it was 38.6 µM (inactive). Also, the GI50 is 34.7 µM (inactive) with HL-60, > 100 µM (inactive) in the assay on EKVX, > 100 µM (inactive) in the assay with OVCAR-3 and > 100 µM (inactive) in the assay with UACC-257.

For `CC[P+]1(c2ccccc2)CCCCC1`, the GI50 in the assay on HOP-92, in the assay on OVCAR-4, in the assay with SF-539, in the assay on SW-620, in the assay on HCC 2998 and in the assay on OVCAR-5 was > 100 µM (inactive) each time. Also, the GI50 in the assay on SK-MEL-28, with HT-29, in the assay on OVCAR-8, in the assay on M14, with MOLT-4 and with CAKI-1 was > 100 µM (inactive) throughout. For the same compound, the GI50 with SR, in the assay with HL-60, with EKVX, with OVCAR-3 and in the assay on UACC-257 was > 100 µM (inactive) throughout.

`O=CN/C=C\c1cc(O)ccc1O`: the GI50 in the assay with HOP-92 was 14.2 µM (inactive); with OVCAR-4, 12.7 µM (inactive); in the assay on SF-539, 10.7 µM (inactive); with SW-620 it was 12.6 µM (inactive); with HCC 2998, > 100 µM (inactive); with OVCAR-5, > 100 µM (inactive). The GI50 was 42.2 µM (inactive) in the assay on SK-MEL-28; 16.9 µM (inactive) with HT-29; 15.6 µM (inactive) with OVCAR-8; 13.5 µM (inactive) with M14; 18.2 µM (inactive) in the assay on MOLT-4; 12.7 µM (inactive) in the assay on CAKI-1. The GI50 was 3.91 µM (inactive) with SR; 10.4 µM (inactive) with HL-60; 15.5 µM (inactive) in the assay with EKVX; 12.2 µM (inactive) in the assay on OVCAR-3; 11.7 µM (inactive) in the assay with UACC-257.

As for `BrC(Br)([P+](c1ccccc1)(c1ccccc1)c1ccccc1)[P+](c1ccccc1)(c1ccccc1)c1ccccc1`, the GI50 in the assay on HOP-92 is 11.1 µM (inactive); in the assay on OVCAR-4 it was 12.1 µM (inactive); in the assay on SF-539, 13.6 µM (inactive); with SW-620, 12.2 µM (inactive); in the assay with HCC 2998 it was 17.4 µM (inactive); in the assay on OVCAR-5, 21.6 µM (inactive). Also, the GI50 with SK-MEL-28 was 16.6 µM (inactive); in the assay on HT-29, 13.6 µM (inactive); with OVCAR-8, 13.1 µM (inactive); with M14 it was 18.5 µM (inactive); in the assay with MOLT-4, 7.91 µM (inactive); with CAKI-1, 7.98 µM (inactive). For the same compound, the GI50 in the assay with SR is 14 µM (inactive); in the assay on HL-60 it was 7.94 µM (inactive); in the assay on EKVX, 19.9 µM (inactive); in the assay on OVCAR-3, 11.9 µM (inactive); in the assay with UACC-257, 19.5 µM (inactive).

`CC1[C@@]2(CCC(C)(C)O2)O[C@@H]2C=C3C4CCC5Cc6nc7c(nc6C[C@@]5(C)C4C[C@H](O)[C@@]3(C)[C@]12O)CC1CCC2C3=C[C@H]4O[C@@]5(O[C@@](C)(CO)C[C@@H]5O)C(C)[C@@]4(O)[C@]3(C)[C@@H](O)CC2[C@]1(C)C7` (stereo not given in full): the GI50 in the assay with HOP-92 was 0.0524 µM (active); in the assay with OVCAR-4 it was 0.723 µM (active); in the assay on SF-539, 0.00847 µM (active); in the assay with SW-620, 0.064 µM (active); with HCC 2998, 0.624 µM (active); with OVCAR-5, 0.142 µM (active). Moreover, the GI50 in the assay on SK-MEL-28 is 0.0553 µM (active); in the assay with HT-29, 0.109 µM (active); in the assay with OVCAR-8, 0.753 µM (active); in the assay with M14 it was 0.04 µM (active); in the assay on MOLT-4, 0.0217 µM (active); in the assay on CAKI-1 it was 0.111 µM (active). The GI50 in the assay on SR was 0.0264 µM (active); in the assay on HL-60, 0.0307 µM (active); in the assay on EKVX, 0.175 µM (active); in the assay on OVCAR-3 it was 0.736 µM (active); in the assay on UACC-257 it was 0.138 µM (active).

Consider `CC(=O)OCC1OC(OC(C)=O)C(NC#N)C(OC(C)=O)C1OC(C)=O` (stereo not given), for which the GI50 in the assay with HOP-92, in the assay with OVCAR-4, in the assay on SF-539, in the assay with SW-620, in the assay with HCC 2998 and in the assay with OVCAR-5 was > 100 µM (inactive) in each case. Besides, the GI50 with SK-MEL-28 was > 100 µM (inactive); in the assay on HT-29 it was > 100 µM (inactive); with OVCAR-8, > 100 µM (inactive); in the assay on M14 it was 97.7 µM (inactive); in the assay with MOLT-4, 86.5 µM (inactive); in the assay with CAKI-1, > 100 µM (inactive). Further, the results for the GI50 in the assay on SR, in the assay on HL-60 and in the assay with OVCAR-3 were 73.5 µM (inactive), > 100 µM (inactive) and > 100 µM (inactive), respectively.

In the case of `C/C=C1\CN2CCc3c([nH]c4ccccc34)C2CC1CCO` (stereo not given), the GI50 was 48 µM (inactive) in the assay with HOP-92; > 100 µM (inactive) in the assay with OVCAR-4; > 100 µM (inactive) in the assay with SF-539; > 100 µM (inactive) in the assay with SW-620; > 100 µM (inactive) with HCC 2998; > 100 µM (inactive) in the assay on OVCAR-5. The GI50 in the assay with SK-MEL-28, in the assay on HT-29, in the assay with OVCAR-8, in the assay with M14, in the assay on MOLT-4 and in the assay with SR was > 100 µM (inactive) each time. Further, the GI50 in the assay with HL-60, in the assay with EKVX, with OVCAR-3 and in the assay on UACC-257 was > 100 µM (inactive) throughout.

Turning to `O=C1CSC(C(/N=N/c2ccccc2)=C2Nc3ccccc3N2)=N1`, the GI50 is 18.5 µM (inactive) in the assay on HOP-92; > 100 µM (inactive) in the assay with OVCAR-4; 26.4 µM (inactive) with SF-539; 93.5 µM (inactive) in the assay on SW-620; > 100 µM (inactive) in the assay on HCC 2998; > 100 µM (inactive) in the assay with OVCAR-5. In addition, the GI50 with SK-MEL-28 was 29.6 µM (inactive); in the assay on HT-29 it was 83.4 µM (inactive); in the assay with OVCAR-8 it was 39.1 µM (inactive); in the assay on M14, 70.3 µM (inactive); with MOLT-4 it was 10 µM (inactive); in the assay on CAKI-1 it was 24.9 µM (inactive). For the same compound, the GI50 is 12.5 µM (inactive) in the assay on SR; 35.9 µM (inactive) in the assay with HL-60; 31.1 µM (inactive) in the assay with EKVX; 27.4 µM (inactive) with OVCAR-3; 24.4 µM (inactive) with UACC-257.

Turning to `C=CCC1(CN(C)C)CC/C(=C\c2cc(OC)c(OC)c(OC)c2)C1=O` (stereo not given), the GI50 with HOP-92 is 90.6 µM (inactive); in the assay with OVCAR-4, 22.2 µM (inactive); in the assay with SF-539 it was 18.7 µM (inactive); in the assay on SW-620, 18.7 µM (inactive); with HCC 2998, 18.1 µM (inactive); with OVCAR-5 it was 51.9 µM (inactive). The GI50 in the assay with SK-MEL-28 is 34.2 µM (inactive); in the assay on HT-29 it was 20.5 µM (inactive); with OVCAR-8 it was 22.8 µM (inactive); with M14, 19.4 µM (inactive); with MOLT-4, 27.5 µM (inactive); with CAKI-1, 19.4 µM (inactive). The GI50 is 19.6 µM (inactive) in the assay on SR; 6.81 µM (inactive) in the assay with HL-60; 12.2 µM (inactive) in the assay with EKVX; 24 µM (inactive) in the assay on OVCAR-3; 27.7 µM (inactive) with UACC-257.
